In one data set the test system is sensitive skin. Description: Human patch test for skin irritation on sensitive skin. It is filed as in vivo. As to the method: A test was conducted to evaluate the suitability and safety of use of soothing gel, lotion, cream, body wash, and foam cleanser formulations including a composition including the ceramide and green barley extract of the present invention. The inventors requested the OATC Skin Clinical Trials Center to perform a human application test, and the test was conducted in accordance with the cosmetics guidelines of Korea's Ministry of Food and Drug Safety, Declaration of Helsinki, and OATC Skin Clinical Trials Center's SOP.
In order to classify the test subjects according to skin type, the test subjects were screened by a stinging test to identify those with sensitive skin, wherein steam was applied to their faces for 10 minutes using a steamer to make their skin sensitive, and subsequently, each of 10% lactic acid and distilled water (D.W.) was applied to the nasolabial folds on either side of the nose.
After the test subject's test site was wiped off with 70% ethanol and dried, 25 μl of a test product was applied dropwise to IQ Ultra, which was then attached and fixed to the test site. At 30 minutes, 24 hours, and 48 hours after removing the patch, the level of irritation was evaluated by two experts using, as a standard, the evaluation method devised by Frosch & Kligman and employing the reading standards of the International Contact Dermatitis Research Group (ICDRG).
In addition, safety zones were established, and an experiment was conducted while using the safety zones as criteria for evaluating the likelihood of causing irritation.

Another data set has as its system filaggrin (FLG). Description: FLG production in HaCaT cells (Filaggrin-ELISA kit). The following applies: for Increase in FLG production (%): 24 hours, Concentration 50 (unit not given), Control = 100. It is filed as cell-based. As to the method:
(§1) HaCaT cells were dispensed into a 24-well plate at 1.0×10^5 cells/mL and cultured under the conditions of 37° C. and 5% CO2 for 18 hours. After the medium was replaced with serum-free DMEM, the cells were treated with a sample and then cultured for 24 hours. Subsequently, the culture solution was removed, and each group was washed with PBS and then treated with PBS containing no drugs that could interfere with the quantification of proteins. The cells were lysed through repeated switching between low-temperature incubation and room-temperature incubation, and the proteins were collected. The quantification was performed, using a Filaggrin-ELISA kit (Elabscience Biotechnology Co., Ltd.), according to the method specified by the manufacturer.
In order to evaluate the skin barrier strengthening effect of Examples 1 to 6 and Comparative Examples 1 to 5, an experiment was conducted to evaluate the effect of increasing the production of FLG.
The production amount of FLG was measured in the same manner as in Experimental Example 3-1.

Another data set has as its system hyaluronic acid (HA). The data set can be described thus: HA production in HaCaT cells (hyaluronic acid ELISA kit). It is filed as cell-based. The following applies: 24 hours; for Increase in HA production (%): Concentration 50 (unit not given), Control = 100. As to the method: HaCaT cells were dispensed into a 24-well plate at 1.0×10^5 cells/mL and cultured under the conditions of 37° C. and 5% CO2 for 18 hours. After the medium was replaced with serum-free DMEM, the cells were treated with a sample and then cultured for 24 hours. Subsequently, the culture medium was collected and centrifuged at 15,000 rpm for five minutes, and the supernatant was collected and stored frozen (−20° C.) until quantified. Enzyme-linked immunosorbent assay (ELISA) was conducted, using a hyaluronic acid ELISA kit (Elabscience Biotechnology Co., Ltd.), according to the method specified by the manufacturer.
In order to evaluate the moisturizing effect of Examples 1 to 6 and Comparative Examples 1 to 5, an experiment was conducted to evaluate an HA production increasing effect.
The HA production amount was measured in the same manner as in Experimental Example 3-2.

The next data set relates to aquaporin 3 (AQP3). The data set can be described thus: AQP3 production in HaCaT cells (AQP3-ELISA kit). It is filed as cell-based. To be noted: 24 hours; for Increase in AQP3 production (%): Concentration 50 (unit not given), Control = 100. The protocol:
as §1, with “In addition, HaCaT cells” for “HaCaT cells”, “cells/mL and then cultured under” for “cells/mL and cultured under”, “performed, using an AQP3-ELISA kit (Elabscience” for “performed, using a Filaggrin-ELISA kit (Elabscience”
In order to evaluate the moisturizing effect of Examples 1 to 6 and Comparative Examples 1 to 5, an experiment was conducted to evaluate an AQP3 production increasing effect.
The AQP3 production amount was measured in the same manner as in Experimental Example 3-2.
In general terms: ELISA stands for enzyme-linked immunosorbent assay.

With `CCCCCCCCCCCCOS(=O)(=O)[O-].[Na+]` [1% SLS], in the data set on sensitive skin (1st reading, patch test), the “Sum of skin irritation reaction intensity 1st” value is 4.00. The “Sum of skin irritation reaction intensity 2nd” value with sensitive skin (2nd reading, patch test) turned out to be 4.00. For the same molecule, the “Sum of skin irritation reaction intensity 3rd” value in the data set on sensitive skin (3rd reading, patch test) turned out to be 3.06. Besides, in the data set on sensitive skin (conformity criterion), the “Irritation of level ++ or more in >10% of test subjects” value was “Conforming”. Besides, the Safety zone entry in the data set on sensitive skin (conformity to safety zone of Table 20) is listed as “Conforming”. This molecule had a Skin irritation index in the data set on sensitive skin (patch test) of 3.06.
For `CCCCCCCCCCCCCCCCCCCCCC(O)C(=O)NC(CO)C(O)C(O)CCCCCCCCCCCCCC` (stereo not drawn) [Comparative Example 5, Ceramide AP], in the data set on filaggrin (FLG), the “Increase in FLG production (%)” value is reported as 129.9%. The “Increase in HA production (%)” value in the data set on hyaluronic acid (HA) was found to be 95.2%. In the data set with aquaporin 3 (AQP3), the “Increase in AQP3 production (%)” value amounted to 113.7%.
`O=c1cc(-c2ccc(O)cc2)oc2cc(O[C@@H]3O[C@H](CO)[C@@H](O)[C@H](O)[C@H]3O)c([C@@H]3O[C@H](CO)[C@@H](O)[C@H](O)[C@H]3O)c(O)c12` [saponarin, 5-hydroxy-2-(4-hydroxyphenyl)-6-[3,4,5-trihydroxy-6-(hydroxymethyl)oxan-2-yl]-7-[3,4,5-trihydroxy-6-(hydroxymethyl)oxan-2-yl]oxychromen-4-one]: in the data set with filaggrin (FLG) (24 hours (FIG. 6)), the “Increase of the expression level of FLG compared to the control” value turned out to be 29.87%. In the data set on hyaluronic acid (HA), the “Production of HA (result in words)” value was “significantly increased the production of skin moisturizing factors”. In addition, the “Production of AQP3 (result in words)” value in the data set with aquaporin 3 (AQP3) is given as “significantly increased the production of skin moisturizing factors”.
Ceramide EOP [Comparative Example 1]: the “Increase in FLG production (%)” value in the data set on filaggrin (FLG) turned out to be 119.5%. Also, the “Increase in HA production (%)” value in the data set on hyaluronic acid (HA) is recorded as 93.0%. In addition, in the data set on aquaporin 3 (AQP3), the “Increase in AQP3 production (%)” value came to 117.5%.
`CCCCCCCCCCCCCCCCCCCCCCC(=O)NC(CO)C(O)C(O)CCCCCCCCCCCCCC` (stereo not drawn) [Comparative Example 3, Ceramide NP]: the “Increase in FLG production (%)” value in the data set with filaggrin (FLG) is 115.5%. Moreover, in the data set on hyaluronic acid (HA), the “Increase in HA production (%)” value is listed as 93.2%. In the data set on aquaporin 3 (AQP3), the “Increase in AQP3 production (%)” value was 114.6%.
Regarding `CCCCCCCCCCCCC/C=C/C(O)C(CO)NC(=O)CCCCCCCCCCCCCCCCCCCCCC` (stereo not drawn) [Comparative Example 2, Ceramide NS], in the data set on filaggrin (FLG), the “Increase in FLG production (%)” value is 116.7%. The “Increase in HA production (%)” value in the data set with hyaluronic acid (HA) came to 94.5%. Further, the “Increase in AQP3 production (%)” value with aquaporin 3 (AQP3) is reported as 118.5%.
For `CCCCCCCCCCCCC/C=C/C(O)C(CO)NC(=O)C(O)CCCCCCCCCCCCCCCCCCCCC` (stereo not drawn) [Comparative Example 4, Ceramide AS] the same measures were 122.4%, 94.6% and 114.5%.

Values taken from patent US20220023196A1, “COSMETIC COMPOSITION FOR SKIN IMPROVEMENT COMPRISING GREEN BARLEY EXTRACT” (AMI COSMETIC CO., LTD., priority 2020, published 2022).
